According to US20250250308A1, “METHODS AND COMPOSITIONS WITH ANTIFUNGAL ACTIVITY” (priority 2022, published 2025):
“And” between values parts separate entries of the source, which are not always exact repeats. Equal values may be shown once. “Also recorded” adds a separate entry of the source. Square brackets hold non-standard residues; d marks the D form. Peptide text beside a SMILES is read from it.

Legend:
C. albicans [1] = experiment: Mouse OPC (oropharyngeal candidiasis) model; assay type: in vivo; details: 100 nM in drinking water for 5 days following inoculation
Description: Mouse OPC model. The efficacy of EntV fragments were tested in the OPC model as described (Graham et al., 2017; Solis and Filler, 2012). Mice were immunosuppressed by injecting 225 mg/kg cortisone acetate subcutaneously 1 d before inoculation, and subsequently on days 1 and 3 of the infection. Group size was 6-8. To prepare the inoculum, 1 ml of C. albicans (SC5314) overnight culture grown at 30° C. in YPD broth was washed twice in PBS before resuspension in sterile Hanks' balanced salt solution (HBSS) at a concentration of 1×10^6 cells/mL. Calcium alginate swabs were soaked in this inoculum for 5 minutes prior to inoculation. Mice were anesthetized using ketamine and xylazine and placed on pre-warmed isothermal pads and the swabs were placed sublingually for 75 min. Mice were given additional doses of ketamine (50 mg/kg), as necessary. After inoculation, mice were given drinking water with EntV fragments or DMSO (0.01%) in the drinking water ad libitum. Mice were euthanized at 5 d after inoculation, unless noted. The tongues were excised and cut in half laterally for tissue histology and assessment of fungal burden.
For tissue histology the tongue sample was placed in 10% zinc-buffered formalin overnight and stored in 80% ethanol, before embedding in paraffin. For each tongue, 5 μm sections were prepared using a Leica microtome and stained using Periodic Acid-Schiff (PAS) stain. Epithelial invasion was measured from 40× images taken of the entire tissue section of each tongue half with the total area of epithelium and infected epithelium were measured using ImageJ (version 1.6). Measurements were totaled and expressed as a percentage of total infected epithelium relative to the entire epithelial area (Graham et al., 2017; Moyes et al., 2016).
For examination of fungal burden, qPCR was used by amplifying a 269-bp fragment of the internal transcribed spacer 2 (ITS2) between the 5.8S and 28S ribosomal RNA genes of C. albicans (Graham et al., 2017; Khot et al., 2009). DNA was extracted from homogenized tongue tissue using the Yeast DNA Extraction Kit (Thermo Scientific) according to the protocol with minor modifications. The ITS2 fragment was amplified by qPCR was performed with a CFX96 Real-Time System with a C1000 Touch thermal cycler (BioRad). C. albicans gDNA was quantified using FastStart Universal SYBR Green master mix with ROX (Roche). To screen for contamination and background fluorescence during the qPCR amplification, no template controls were used.

Cryptococcus neoformans = experiment: High-throughput Sytox Orange C. elegans infection assay, C. neoformans; assay type: in vivo; details: five days of infection; vs. DMSO control
Description: FIGS. 15A-15D: Secondary testing of gain-of-function variants from screen. (FIG. 15A) Survival over time of C. elegans infected with C. albicans and exposed to 1 nM of the indicated peptides. Statistical differences in survival were compared to animals in the exposure condition on the right of the legend (12aa-WT) by Mantel-Cox log rank analysis. An n of 30 animals was used and one representative trial is shown. (FIG. 15B) Percent survival as measured by the high-throughput Sytox Orange assay following five days of infection with C. albicans is shown. Means were calculated with the error bars representing the SEM. Statistical differences in survival were compared to animals in the untreated condition (DMSO) by one-way ANOVA followed by Dunnett's multiple comparison test. An n of 30 animals was used per experimental group. (FIG. 15C) Adhesion of C. albicans to tissue-culture treated plates following incubation with 10 nM of the indicated peptides is shown. […] Means were calculated with the error bars representing the SEM. Statistical significance in comparison to the DMSO control group was determined using one-way ANOVA followed by Tukey's multiple comparison test. […] (FIG. 15D) Percent survival as measured by the high-throughput Sytox Orange assay following five days of infection with C. neoformans is shown. Means were calculated with the error bars representing the SEM. […]

C. albicans [2] = experiment: Killing of C. elegans by C. albicans (survival of infected nematodes); assay type: in vivo; details: for Median survival: C. albicans infected C. elegans exposed to 1 nM peptide, one value per trial; for Protection of C. elegans from C. albicans infection (survival): 1 nM peptide
Description: The α7 helix is sufficient to protect C. elegans and inhibit surface adhesion. Based on this structural characterization, fragments of EntV were examined to identify those structural moieties that retained antifungal activity. Synthetic peptides were generated of each of the four alpha helices (plus two flanking amino acids) from the active C-terminus of EntV—α4, α5, α6 and α7 (FIG. 1A) as well as an α4-α6 construct. The peptides were tested for their ability to protect C. elegans against C. albicans infection as established in previous work (Cruz et al., 2013; Graham et al., 2017).
Killing of C. elegans by C. albicans. The methodology used for the C. elegans infection assays was performed, with a few modifications, as described ((Breger et al., 2007; Cruz et al., 2013; Graham et al., 2017; Peleg et al., 2008)). Briefly, C. elegans glp-4(bn2); sek-1(km-4) (Breger et al., 2007) nematodes were propagated and maintained on E. coli strain OP50(Brenner, 1974) that was seeded onto nematode growth medium (NGM) agar using standard techniques (Hope, 1999). To synchronize the animals, L1 stage worms on non-starved plates were washed off, filtered through a 10 μm filter (pluriSelect, pluriStrainer 10 μm), harvested by centrifugation, transferred to OP50 seeded plates, and grown to the L4 stage. To prepare the infection plates, C. albicans strain […] (Gillum et al., 1984) was grown in YPD broth for 24 h at 37° C. with agitation. 500 μl of the culture was plated onto BHI solid medium containing gentamycin (10 μg/ml) and grown for 24 h at 37° C. The synchronized, L4 C. elegans were washed off the OP50 plates in 2 ml sterile M9 buffer and washed once, centrifuging at 750×g for 30 seconds to collect animals. Animals were infected by placing them on the SC5314 lawn for 4 h at 25° C. Following this exposure, they were washed off the plate and washed four times with 2 ml of sterile M9. The nematodes were then pipetted (˜30 per well with 2 wells per condition for a total of ˜60 worms assayed) into six-well plates with 2 ml of liquid medium (20% BHI broth and 80% M9) containing the indicated concentrations of test compounds. Plates were incubated at 25° C., and worm death was scored daily. Kaplan-Meier survival curves were generated and analyzed as described in the quantification and statistical analysis section.

C. auris = experiment: Survival of C. elegans infected with C. auris; assay type: in vivo; details: 1 nM peptide
Description: FIGS. 6A-6D: EntV peptides have activity against many fungal species and strains. Survival over time of C. elegans infected with C. auris, (FIG. 6A), C. neoformans, (FIG. 6B), and C. albicans, (FIG. 6C), paired clinical isolates before (AzS: fluconazole-susceptability) and after gaining fluconazole resistance (AzR), (FIG. 6D). Peptides were added at 1 nM and fluconazole at 4 ug/ml. Statistical differences in survival were compared to animals to the DMSO vehicle control by Mantel-Cox log rank analysis. An n of 60 was used and one representative trial is shown. Exact p values from top to bottom: (FIG. 6A) <0.0001, <0.0001, (FIG. 6B) <0.0001, <0.0001, (FIG. 6C) 0.0013, 0.0004, 0.0035, (FIG. 6D) 0.0050, 0.0040, 0.5539.
EntV peptides have activity against other fungal species and strains. […] Paired clinical isolates of C. albicans, in which fluconazole-resistance had been gained following in-patient evolution were tested and it was determined that animals infected with both the original strain as well as the fluconazole-resistant descendent were protected by EntV ([…]).
Killing of C. elegans by C. albicans. […] Plates were incubated at 25° C., and worm death was scored daily. Kaplan-Meier survival curves were generated and analyzed as described in the quantification and statistical analysis section.

C. albicans [3] = experiment: High-throughput Sytox Orange C. elegans infection assay, C. albicans; assay type: in vivo; details: five days of infection; vs. DMSO control
Description: FIGS. 15A-15D: Secondary testing of gain-of-function variants from screen. (FIG. 15A) Survival over time of C. elegans infected with C. albicans and exposed to 1 nM of the indicated peptides. Statistical differences in survival were compared to animals in the exposure condition on the right of the legend (12aa-WT) by Mantel-Cox log rank analysis. An n of 30 animals was used and one representative trial is shown. (FIG. 15B) Percent survival as measured by the high-throughput Sytox Orange assay following five days of infection with C. albicans is shown. Means were calculated with the error bars representing the SEM. Statistical differences in survival were compared to animals in the untreated condition (DMSO) by one-way ANOVA followed by Dunnett's multiple comparison test. An n of 30 animals was used per experimental group. (FIG. 15C) Adhesion of C. albicans to tissue-culture treated plates following incubation with 10 nM of the indicated peptides is shown. A non-adherent strain (Δefg1/Δcph1) was used as a control. Means were calculated with the error bars representing the SEM. Statistical significance in comparison to the DMSO control group was determined using one-way ANOVA followed by Tukey's multiple comparison test. An n of three biological replicates, each with four technical replicates, was used. (FIG. 15D) Percent survival as measured by the high-throughput Sytox Orange assay following five days of infection with C. neoformans is shown. Means were calculated with the error bars representing the SEM. Statistical differences in survival were compared to animals in the untreated condition (DMSO) by one-way ANOVA followed by Dunnett's multiple comparison test. An n of 30 animals was used per experimental group.
High-throughput screening of this library was performed by employing established assays to assess antifungal agent efficacy. […] By using these assays in concert, each individual peptide was assessed using two approaches that probe different aspects of C. albicans virulence.

[4] = Peptide serum stability assay; assay type: in vitro ADME; details: 10% human serum, 37° C., HPLC; read-out: Peptide remaining after 24 hours in human serum
Description: Peptide serum stability assay. One mL of RPMI supplemented with 10% (v/v) of human serum (type AB) were aliquoted and temperature-equilibrated at 37° C. for 15 min before adding a concentrated stock peptide solution resulting in a final peptide concentration of 100 μM. For each time point, 100 μL of the reaction solution was removed and added to 200 μL 96% ethanol for precipitation of serum proteins. The sample was cooled (4° C.) for 15 min and then spun at 18,000 g for 2 min to pellet the precipitated serum proteins. The reaction supernatant was analyzed using HPLC with absorbance detected at 280 nm. The peptide peak was detected first without serum treatment to assess the area under the curve for the peptide of interest. At each time point the area under the curve was calculated by HPLC and then divided by the untreated peptide area under the curve to determine the percent remaining.

Row | Compound | Fungal burden in the tongue (C. albicans DNA by qPCR) (C. albicans [1]) | Hyphal (epithelial) invasion of the tongue (C. albicans [1]) | Median survival (C. albicans [2]) | Protection of C. elegans from C. albicans infection (survival) (C. albicans [2]) | Survival of C. elegans by Sytox Orange assay, C. albicans (C. albicans [3]) | other results
1 | GQLALWAVQC [10aa] | reduced fungal burden in the OPC model, but not to the same degree as the 12-mer | some reduction | 8 days and 9 days | – | – | Survival of C. elegans by Sytox Orange assay, C. neoformans (Cryptococcus neoformans): not effective
2 | TNAIIVAGQLALWAVQCG [α7] | – | – | 10.5 days and 12 days and 11 days and 10 days and 13 days and 14 days | protected C. elegans from C. albicans infection as well or better than full-length, active EntV^68 | – | Survival of C. elegans infected with C. auris (C. auris): protected animals from death
3 | LVLAFWAVVC [P3] | – | – | – | as effective in protecting the animals as the original 12aa peptide | statistically significant antifungal activity | –
4 | VLLALWALVC [P5] | – | – | – | as effective in protecting the animals as the original 12aa peptide | – | –
5 | TNAAAAQQGGIICLLVVWLS [α7 - disrupt] | – | – | 6 days | – | – | –
6 | VVLALWAVQC [P1] | significantly reduced | significantly reduced | – | as effective in protecting the animals as the original 12aa peptide | statistically significant antifungal activity | –
7 | VQLALWAVQC [P4] | significantly reduced; also recorded: more effective than P1 in reducing fungal burden | significantly reduced | – | as effective in protecting the animals as the original 12aa peptide | statistically significant antifungal activity | –
8 | AGQLALWAVQC [11aa] | reduced fungal burden in the OPC model, but not to the same degree as the 12-mer | some reduction | 9 days and 10 days | – | – | –
9 | CC(C)C[C@@H](NC(=O)[C@@H](C)NC(=O)[C@@H](CC(C)C)NC(=O)[C@@H](CCC(N)=O)NC(=O)CNC(=O)[C@@H](C)NC(=O)[C@H](N)C(C)C)C(=O)N[C@H](Cc1c[nH]c2ccccc12)C(=O)N[C@H](C)C(=O)N[C@@H](C(=O)N[C@H](CCC(N)=O)C(=O)N[C@H](CS)C(N)=O)C(C)C [12aa D-form peptide] (H-[dV][dA]G[dQ][dL][dA][dL][dW][dA][dV][dQ][dC]-NH2) | – | – | – | remained as effective as the original in protecting C. elegans against infection with C. albicans | – | remaining at 24 h, 100 μM [4]: ~35%
10 | TNVGALWICGLAVIQAAQLS [α7 - random] | – | – | 7 days | – | – | –
